Paper PMC6013238, “Development of novel NEMO-binding domain mimetics for inhibiting IKK/NF-κB activation” (PLoS Biology, 2018)
Several values for one entry are separate records, joined by “and”; a condition that tells them apart may be missing. Identical values can stand only once.

Legend:
mdx mice = experiment: Chronic treatment of mdx mice, laminin stain and minimum Feret diameter of myofibers; type: in vivo, mouse; conditions: Fig 7F, TA muscle, 4 wk treatment, single mice
Text: Fig 7 NBD mimetics improve muscular pathology and grip strength in mdx mice. (A) Shown is the treatment regimen with NBD mimetics in mdx mice. (B) Hematoxylin–eosin staining of TA muscle from 7-wk-old, treated or untreated mdx mice. Images were taken at magnification of 20×. Representative images were shown for each treatment group. […] (E) TA muscle from 7-wk-old, treated or untreated mdx mice was stained with laminin by IHC to outline myofibers. Overall images of TA muscle were shown on the left side, and the inset panel images were shown on the right side. (F) Quantitation of minimum Feret diameter in centrally and noncentrally nucleated myofibers. (G) Forelimb force determined by grip strength test. Five-wk-old (2 wk post treatment) and 7-wk-old (4 wk post treatment) mdx mice, treated or untreated, were tested for forelimb grip strength. Five sequential tests were performed, and the force was normalized to body weight. Data were shown as mean +/− SEM. Dosages used are as follows: SR12343 (30 mg/kg), SR12460 (30 mg/kg), and 8K-NBD peptide (10 mg/kg). n = 6–7 each group. *P < 0.05, **P < 0.01. Underlying data can be found in S1 Data. eMyHC, embryonic myosin heavy chain; IHC, immunohistochemistry; NBD, NEMO-binding domain; NEMO, NF-κB essential modulator; Pax7, paired box protein 7; qRT-PCR, quantitative real-time polymerase chain reaction; TA, tibialis anterior.
To determine whether SR12343 and SR12460 improve muscle pathology, TA muscle was stained with hematoxylin–eosin to assess inflammatory infiltration, necrosis, central nucleation, and fibrosis. […] In addition, Masson trichrome stain was conducted to further measure muscle fibrosis. Chronic treatment with SR12343 reduced muscle fibrosis (blue) in diaphragm and TA muscle tissues in comparison to control group (Fig 8A & 8B). To further quantitate the extent of inflammation in mdx muscle tissues, diaphragm and TA muscle were immunostained for cluster of differentiation 68 (CD68), a macrophage marker. Treatment with SR12343 reduced the number of CD68^+ cells by almost 50% per myofiber in both diaphragm and TA tissues (Fig 8A & 8B). […] To quantify the average fiber size in an unbiased way, TA muscle was stained with laminin to outline myofibers, and Feret diameter of all myocytes was quantitated in a whole muscle section.
To ensure rigorous quantitation of average fiber size, TA muscle was stained with laminin to outline myofibers. […] Centrally nucleated fibers were determined by first eroding the binary mask of the muscle fibers so that only the central portion of each fiber was present. […] Using the original muscle fiber mask, Feret diameters for centrally nucleated and noncentrally nucleated fibers were then measured.

IL-6 production = experiment: Mouse IL-6 ELISA of supernatant of LPS-stimulated Raw 264.7 cells; type: cell-based; conditions: LPS 1 μg/ml 24 h; for mIL-6 in supernatant (ELISA): Fig 4D; for Effect on LPS-induced IL-6 production (ELISA): 25 and 50 μM
Experimental: Fig 4 Modified lead NBD mimetics inhibit TNF-α- and LPS-induced NF-κB activation by disrupting the association between NEMO and IKKβ. (A) Structures of top NBD mimetics. (B) Measurement of NF-κB activation in response to TNF-α by using Dual-luciferase reporter assays. HEK293 cells cotransfected with NF-κB luciferase reporter and SV40-Renilla plasmids were pretreated with DMSO or listed small molecules at 0, 25, 50, 100, and 150 μM for 30 min, followed by the induction of TNF-α for 3 h. Data shown are representative of 2–3 independent experiments. […] Raw 264.7 cells were pretreated with indicated drugs for 30 min and then stimulated with 1 μg/ml of LPS for 2 h. Cells were then harvested for RNA extraction and qRT-PCR analysis. Drug concentrations used are as follows: IKKi VII (2 μM), 8K-NBD peptide (200 μM), SR12343 (50 μM), SR12460 (50 μM), SR12454 (50 μM), and SR11481 (50 μM). Data are representative of 2 independent experiments. […] Raw 264.7 cells pretreated with DMSO or drugs at indicated concentrations were exposed to 1 μg/ml of LPS for 24 h, and supernatant was collected for ELISA analysis of mouse IL-6. *P < 0.05; **P < 0.01. Underlying data can be found in S1 Data. HEK293, human embryonic kidney 293 cells; IKK, IκB kinase; IL-6, interleukin 6; LPS, lipopolysaccharide; NBD, NEMO-binding domain; n.d., nondetectable; NEMO, NF-κB essential modulator; NF-κB, nuclear factor κB; qRT-PCR, […] real-time polymerase chain reaction; TNF-α; tumor necrosis factor α. TEXT PRINTED IN THE PICTURE: (D) ikki VII: mIL-6 (ng/ml): n.d. | (D) SR12460: mIL-6 (ng/ml): n.d. (50μM) | (D) SR12454: mIL-6 (ng/ml): n.d. (50μM) DOUBTS OF THE COPYIST ABOUT THIS PICTURE: Panel D: the only printed results are the three "n.d." labels. They stand in place of bars and are assigned to ikki VII, SR12460 50μM and SR12454 50μM by their position on the axis. All other results are shown only as bars, with no printed numbers.
To confirm the qRT-PCR results, the levels of IL-6 production in Raw 264.7 cells activated by LPS were analyzed by ELISA.
Raw 264.7 cells were grown in 96-well plates and pretreated with vehicle, IKKi VII (2 μM), and small molecules (at indicated concentration) for 1 h, followed by the stimulation with 1 μg/ml of LPS. Supernatant was collected 24 h later for ELISA analysis. IL-6 concentration was measured using a mouse IL-6 ELISA kit (BD) according to the manufacturer’s instructions.

SMILES | Feret 90's of non-centrally nucleated fibers (mdx mice) | Feret's of centrally nucleated fibers (mdx mice) | mIL-6 in supernatant (ELISA) (IL-6 production; 25 μM) | mIL-6 in supernatant (ELISA) (IL-6 production; 50 μM) [ng/mL] | Effect on LPS-induced IL-6 production (ELISA) (IL-6 production)
O=C(CNCCc1cc(F)cc(F)c1)Nc1ccc(Cl)cn1 [SR12460] | 42.38 and 57.7 and 50.27 and 41.83 and 37.95 | 36.18 and 50.79 and 43.17 and 46.06 and 34.34 | 1.4838 ng/mL and 1.2369 ng/mL and 1.4569 ng/mL | 0 | inhibit IL-6 secretion significantly in a dose-dependent manner
O=C(CNc1ccc(Cl)cn1)NCCc1cccc(Br)c1 [SR12343] | 30.77 and 40.26 and 44.29 and 46.1 | 29.8 and 35.12 and 37.33 and 39.93 | 2.6915 ng/mL and 2.4446 ng/mL and 1.843 ng/mL | – | inhibited IL-6 production, but was not as effective as SR12460 and SR12454
